{"source": "patent US20080207643A1", "about": "“Composition for Treating Hyperlipaemia” (priority 2004, published 2008)", "key": {"[1]": {"system": "hyperlipemia rat model", "assay": "Effects on the blood lipid level in hyperlipemia model rats (high lipid containing feed)", "type": "in vivo, Wistar rats", "settings": "gavage 14 days", "text": "Each group included 10 rats. […] The measurement is the same as the experiment conducted on normal rats as described in section 5.4."}, "[2]": {"system": "hyperlipemia patients", "settings": "80 mg/d, 22 hyperlipemia patients; cited from earlier work"}, "[3]": {"system": "normal rats", "assay": "Effects on the blood lipid level in the normal rats", "type": "in vivo, Wistar rats", "settings": "gavage 4 days", "experimental": "Wistar rats, bred by the Medical Experimental Animal Centre of Chinese Academy of Military Medical Sciences, certificate No. […] By calculating in accordance with the principle of dosage equivalent per body surface area, the above mentioned generally used dosage for human was converted into the dosage for rats of about 50 mg/kg/day. […] By calculating in accordance with the principle of dosage equivalent per body surface area, the above mentioned generally used dosage for human was converted into the dosage for rats of about 0.85 mg/kg/day."}, "[4]": {"system": "hyperlipemia rat model", "assay": "Comparison of the different formulations of acipimox in combination with atorvastatin calcium on hyperlipemia of rats", "type": "in vivo, Wistar rats", "settings": "comparison test, gavage 14 days", "text": "The level of serum total cholesterol level was respectively measured before grouping, and then randomly grouping by following the balance principle. Each group included 10 rats."}, "[5]": {"settings": "cited from earlier work"}, "[6]": {"system": "hyperlipemia model rats", "assay": "Effects on the activity of seroenzyme (alanine transaminase, creatine kinase) in the model rats", "settings": "for Alanine transaminase / Creatine kinase: serum of model rats, gavage 14 days", "description": "Hyperlipemia rat model was established by inducing hyperlipemia with high lipid containing feed. The formulation of high lipid containing feed was as follows: basic feed 86.3%, cholesterol 3%, lard 10%, methylthiouracil 0.2% and porcine bile salt 0.5%, and were allowed to be mixed uniformly. The rats were continuously fed for 2 weeks. During the administration of drugs, high lipid containing feed was administered every other day.\nThe serum bio-chemical index includes total cholesterol (TC), alanine transaminase (ALT), creatine kinase (CK), triglyceride (TG), low density lipoprotein-cholesterol (LDL-C), high density lipoprotein-cholesterol (LDL-C). The reagents for measuring alanine transaminase (ALT) and creatine kinase (CK) were produced by Beijing Zhongsheng High-Tech Bioengineering Company, and SABA/18 Automatic Biochemical Analyzer was used for measurement. Other reagents were produced by Roche Inc., Japan, and Hitachi 7020 Automatic Biochemical Analyzer was used for measurement. The measuring methods are based on the specifications of the reagents, and the rats were fasted for 16 hours before collecting blood.\nThe administering route intended for the clinical application is oral administration, and thus gavage administration was used in the present experiment for continuous 14 days. Gavage administration was conducted on the rats after feeding, once per day. The dosing volume is 0.3 ml/100 g of body weight."}}, "data": [{"smiles": "CC(C)c1c(C(=O)Nc2ccccc2)c(-c2ccccc2)c(-c2ccc(F)cc2)n1CC[C@@H](O)C[C@@H](O)CC(=O)O", "note": "[Atorvastatin calcium, calcium [R-(R′,R′)]2-(4-fluorophenyl)-βδ-dihydroxyl-5-(1-methylethyl)-3-phenyl-4-[aniline]carbonyl]-1-hydro-pyrrolyl-1-heptanoate trihydrate]", "values": [{"measurement": "Total cholesterol in serum", "setting": "[1]; atorvastatin calcium 5 mg/kg", "value": "12.45 ± 2.67", "unit": "mmol/L"}, {"measurement": "Triglyceride in serum", "setting": "[1]; atorvastatin calcium 5 mg/kg", "value": "1.93 ± 0.52", "unit": "mmol/L"}, {"measurement": "Total cholesterol in serum", "setting": "[1]; atorvastatin calcium 10 mg/kg", "value": "11.23 ± 2.12", "unit": "mmol/L"}, {"measurement": "Triglyceride in serum", "setting": "[1]; atorvastatin calcium 10 mg/kg", "value": "1.80 ± 0.28", "unit": "mmol/L"}, {"measurement": "Total cholesterol in serum", "setting": "[1]; atorvastatin calcium 20 mg/kg", "value": "10.27 ± 2.67", "unit": "mmol/L"}, {"measurement": "Triglyceride in serum", "setting": "[1]; atorvastatin calcium 20 mg/kg", "value": "1.72 ± 0.47", "unit": "mmol/L"}, {"measurement": "Total cholesterol in serum", "setting": "[1]; atorvastatin calcium 30 mg/kg", "value": "9.91 ± 2.65", "unit": "mmol/L"}, {"measurement": "Triglyceride in serum", "setting": "[1]; atorvastatin calcium 30 mg/kg", "value": "1.78 ± 0.55", "unit": "mmol/L"}, {"measurement": "decreases the activity of coagulation factor VII", "setting": "[2]", "value": 8, "unit": "%"}, {"measurement": "decreases the coagulation rate of platelet induced by thromboxane A2 (TXA2)", "setting": "[2]", "value": 11, "unit": "%"}, {"measurement": "Total cholesterol in serum", "setting": "[3]; atorvastatin calcium 5 mg/kg", "value": "1.64 ± 0.30", "unit": "mmol/L"}, {"measurement": "Triglyceride in serum", "setting": "[3]; atorvastatin calcium 5 mg/kg", "value": "0.67 ± 0.28", "unit": "mmol/L"}, {"measurement": "Total cholesterol in serum", "setting": "[3]; atorvastatin calcium 10 mg/kg", "value": "1.52 ± 0.31", "unit": "mmol/L"}, {"measurement": "Triglyceride in serum", "setting": "[3]; atorvastatin calcium 10 mg/kg", "value": "0.65 ± 0.33", "unit": "mmol/L"}, {"measurement": "Total cholesterol in serum", "setting": "[3]; atorvastatin calcium 20 mg/kg", "value": "1.46 ± 0.24", "unit": "mmol/L"}, {"measurement": "Triglyceride in serum", "setting": "[3]; atorvastatin calcium 20 mg/kg", "value": "0.55 ± 0.16", "unit": "mmol/L"}, {"measurement": "Total cholesterol in serum", "setting": "[3]; atorvastatin calcium 30 mg/kg", "value": "1.41 ± 0.29", "unit": "mmol/L"}, {"measurement": "Triglyceride in serum", "setting": "[3]; atorvastatin calcium 30 mg/kg", "value": "0.51 ± 0.18", "unit": "mmol/L"}, {"measurement": "Total cholesterol in serum", "setting": "[4]; atorvastatin calcium 10 mg/kg", "value": "10.20 ± 1.62", "unit": "mmol/L"}, {"measurement": "Triglyceride in serum", "setting": "[4]; atorvastatin calcium 10 mg/kg", "value": "1.56 ± 0.62", "unit": "mmol/L"}, {"measurement": "Total cholesterol in serum", "setting": "[4]; atorvastatin calcium 20 mg/kg", "value": "9.65 ± 2.22", "unit": "mmol/L"}, {"measurement": "Triglyceride in serum", "setting": "[4]; atorvastatin calcium 20 mg/kg", "value": "1.47 ± 0.56", "unit": "mmol/L"}]}, {"smiles": "Cc1cnc(C(=O)O)c[n+]1[O-]", "note": "[Acipimox, acipimox]", "values": [{"measurement": "combination with plasma protein", "setting": "[5]; in vivo", "value": "does not combine with plasma protein"}, {"measurement": "excretion and metabolism", "setting": "[5]; in vivo", "value": "excreted mainly in the form of Acipimox itself, without being metabolized"}, {"measurement": "half life", "setting": "[5]; oral administration", "value": 2, "unit": "h"}, {"measurement": "time to the peak of plasma concentration after administration", "setting": "[5]; oral administration", "value": "≤ 2", "unit": "h"}, {"measurement": "levels of alanine transaminase and creatine kinase in serum in comparison with the model control group", "setting": "[6]; model rats, 14 days, acipimox 100 to 400 mg/kg, P>0.05", "value": "not remarkably different"}, {"measurement": "Alanine transaminase", "setting": "[6]; acipimox 100 mg/kg", "value": "640.3 ± 117.6", "unit": "nmol/s/L"}, {"measurement": "Creatine kinase", "setting": "[6]; acipimox 100 mg/kg", "value": "361.4 ± 106.4", "unit": "U/L"}, {"measurement": "Alanine transaminase", "setting": "[6]; acipimox 200 mg/kg", "value": "645.4 ± 124.9", "unit": "nmol/s/L"}, {"measurement": "Creatine kinase", "setting": "[6]; acipimox 200 mg/kg", "value": "354.4 ± 110.9", "unit": "U/L"}, {"measurement": "Alanine transaminase", "setting": "[6]; acipimox 300 mg/kg", "value": "655.5 ± 110.5", "unit": "nmol/s/L"}, {"measurement": "Creatine kinase", "setting": "[6]; acipimox 300 mg/kg", "value": "380.33 ± 120.1", "unit": "U/L"}, {"measurement": "Alanine transaminase", "setting": "[6]; acipimox 400 mg/kg", "value": "642.8 ± 114.2", "unit": "nmol/s/L"}, {"measurement": "Creatine kinase", "setting": "[6]; acipimox 400 mg/kg", "value": "377.3 ± 103.4", "unit": "U/L"}, {"measurement": "High density lipoprotein-cholesterol", "setting": "[1]; acipimox 100 mg/kg", "value": "3.95 ± 0.63", "unit": "mmol/L"}, {"measurement": "Low density lipoprotein-cholesterol", "setting": "[1]; acipimox 100 mg/kg", "value": "8.44 ± 1.06", "unit": "mmol/L"}, {"measurement": "Total cholesterol in serum", "setting": "[1]; acipimox 100 mg/kg", "value": "13.18 ± 2.31", "unit": "mmol/L"}, {"measurement": "Triglyceride in serum", "setting": "[1]; acipimox 100 mg/kg", "value": "1.98 ± 0.42", "unit": "mmol/L"}, {"measurement": "High density lipoprotein-cholesterol", "setting": "[1]; acipimox 200 mg/kg", "value": "4.35 ± 0.55", "unit": "mmol/L"}, {"measurement": "Low density lipoprotein-cholesterol", "setting": "[1]; acipimox 200 mg/kg", "value": "8.23 ± 0.40", "unit": "mmol/L"}, {"measurement": "Total cholesterol in serum", "setting": "[1]; acipimox 200 mg/kg", "value": "10.82 ± 3.05", "unit": "mmol/L"}, {"measurement": "Triglyceride in serum", "setting": "[1]; acipimox 200 mg/kg", "value": "1.78 ± 0.55", "unit": "mmol/L"}, {"measurement": "High density lipoprotein-cholesterol", "setting": "[1]; acipimox 300 mg/kg", "value": "4.56 ± 0.50", "unit": "mmol/L"}, {"measurement": "Low density lipoprotein-cholesterol", "setting": "[1]; acipimox 300 mg/kg", "value": "7.79 ± 0.89", "unit": "mmol/L"}, {"measurement": "Total cholesterol in serum", "setting": "[1]; acipimox 300 mg/kg", "value": "10.73 ± 2.36", "unit": "mmol/L"}, {"measurement": "Triglyceride in serum", "setting": "[1]; acipimox 300 mg/kg", "value": "1.69 ± 0.51", "unit": "mmol/L"}, {"measurement": "High density lipoprotein-cholesterol", "setting": "[1]; acipimox 400 mg/kg", "value": "4.70 ± 0.58", "unit": "mmol/L"}, {"measurement": "Low density lipoprotein-cholesterol", "setting": "[1]; acipimox 400 mg/kg", "value": "7.65 ± 0.40", "unit": "mmol/L"}, {"measurement": "Total cholesterol in serum", "setting": "[1]; acipimox 400 mg/kg", "value": "11.18 ± 2.47", "unit": "mmol/L"}, {"measurement": "Triglyceride in serum", "setting": "[1]; acipimox 400 mg/kg", "value": "1.72 ± 0.54", "unit": "mmol/L"}, {"measurement": "High density lipoprotein-cholesterol", "setting": "[3]; acipimox 100 mg/kg", "value": "0.97 ± 0.16", "unit": "mmol/L"}, {"measurement": "Low density lipoprotein-cholesterol", "setting": "[3]; acipimox 100 mg/kg", "value": "0.32 ± 0.12", "unit": "mmol/L"}, {"measurement": "Total cholesterol in serum", "setting": "[3]; acipimox 100 mg/kg", "value": "1.60 ± 0.35", "unit": "mmol/L"}, {"measurement": "Triglyceride in serum", "setting": "[3]; acipimox 100 mg/kg", "value": "0.71 ± 0.27", "unit": "mmol/L"}, {"measurement": "High density lipoprotein-cholesterol", "setting": "[3]; acipimox 200 mg/kg", "value": "0.98 ± 0.23", "unit": "mmol/L"}, {"measurement": "Low density lipoprotein-cholesterol", "setting": "[3]; acipimox 200 mg/kg", "value": "0.26 ± 0.11", "unit": "mmol/L"}, {"measurement": "Total cholesterol in serum", "setting": "[3]; acipimox 200 mg/kg", "value": "1.55 ± 0.28", "unit": "mmol/L"}, {"measurement": "Triglyceride in serum", "setting": "[3]; acipimox 200 mg/kg", "value": "0.69 ± 0.33", "unit": "mmol/L"}, {"measurement": "High density lipoprotein-cholesterol", "setting": "[3]; acipimox 300 mg/kg", "value": "1.15 ± 0.26", "unit": "mmol/L"}, {"measurement": "Low density lipoprotein-cholesterol", "setting": "[3]; acipimox 300 mg/kg", "value": "0.29 ± 0.11", "unit": "mmol/L"}, {"measurement": "Total cholesterol in serum", "setting": "[3]; acipimox 300 mg/kg", "value": "1.51 ± 0.26", "unit": "mmol/L"}, {"measurement": "Triglyceride in serum", "setting": "[3]; acipimox 300 mg/kg", "value": "0.63 ± 0.28", "unit": "mmol/L"}, {"measurement": "High density lipoprotein-cholesterol", "setting": "[3]; acipimox 400 mg/kg", "value": "1.18 ± 0.13", "unit": "mmol/L"}, {"measurement": "Low density lipoprotein-cholesterol", "setting": "[3]; acipimox 400 mg/kg", "value": "0.24 ± 0.14", "unit": "mmol/L"}, {"measurement": "Total cholesterol in serum", "setting": "[3]; acipimox 400 mg/kg", "value": "1.49 ± 0.28", "unit": "mmol/L"}, {"measurement": "Triglyceride in serum", "setting": "[3]; acipimox 400 mg/kg", "value": "0.57 ± 0.36", "unit": "mmol/L"}, {"measurement": "High density lipoprotein-cholesterol", "setting": "[4]; acipimox 200 mg/kg", "value": "4.20 ± 1.10", "unit": "mmol/L"}, {"measurement": "Low density lipoprotein-cholesterol", "setting": "[4]; acipimox 200 mg/kg", "value": "7.27 ± 1.83", "unit": "mmol/L"}, {"measurement": "Total cholesterol in serum", "setting": "[4]; acipimox 200 mg/kg", "value": "10.31 ± 1.67", "unit": "mmol/L"}, {"measurement": "Triglyceride in serum", "setting": "[4]; acipimox 200 mg/kg", "value": "1.79 ± 0.63", "unit": "mmol/L"}, {"measurement": "High density lipoprotein-cholesterol", "setting": "[4]; acipimox 300 mg/kg", "value": "4.54 ± 0.52", "unit": "mmol/L"}, {"measurement": "Low density lipoprotein-cholesterol", "setting": "[4]; acipimox 300 mg/kg", "value": "6.96 ± 1.23", "unit": "mmol/L"}, {"measurement": "Total cholesterol in serum", "setting": "[4]; acipimox 300 mg/kg", "value": "8.69 ± 1.88", "unit": "mmol/L"}, {"measurement": "Triglyceride in serum", "setting": "[4]; acipimox 300 mg/kg", "value": "1.68 ± 0.56", "unit": "mmol/L"}]}]}
